Common to all, as to test: NCI anticancer screen, dose series, 48 h
The subject of test [1] is NCI-H23 lung.
In test [2] the test system is ACHN renal.
The subject of test [3] is HCT-116 colon.
For test [4], the system named is SK-MEL-2 melanoma.
Test [5] deals with SNB-75 CNS.
For test [6], the system named is UO-31 renal.
Test [7] deals with SN12C renal.
In test [8] the test system is SK-MEL-28 melanoma.
Test [9] deals with HOP-92 NSCLC.

Molecules are shown by their SMILES.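 Compound exposure: 48 hours, 5 concentrations, 96-well plates. GI50: concentration for 50% inhibition of growth. At the TGI there is no net growth.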

Turning to `O=[N+]([O-])c1ccccc1C=NC12CC3CC(CC(C3)C1)C2`, the TGI in test [1], in [2], in test [3], in [4], in test [5] and in test [6] was more than 100 µM throughout. In addition, the TGI in [7], in [8] and in [9] was more than 100 µM in each case.
Turning to `COC(=O)N/N=C(/CCC(=O)Nc1ccc(C)c(C)c1)CC(=O)C(C)(C)C`, the TGI in [1], in test [2], in [4], in test [5], in test [6] and in test [7] was more than 100 µM each time. The same compound showed a TGI in [8] of more than 100 µM.
Turning to `Cc1ccc(-c2cc(=O)c3cc(C)c(C)c(C(=O)O)c3o2)cc1N`, the TGI in test [1], in [2], in test [3], in test [4], in [5] and in [6] was more than 100 µM in each case. Moreover, the TGI in [7] and in test [8] was more than 100 µM in each case.
Regarding `CN[C@@H](C)[C@H](N)c1ccccc1`, the TGI in [1], in [2], in [3], in test [5], in [6] and in [7] was more than 100 µM in each case. The TGI in [8] and in test [9] was more than 100 µM in each case.
Turning to `NCCOc1ccccc1/C=C1\c2ccccc2-c2ccc([N+](=O)[O-])cc21`, the GI50 was 1.7 µM in test [1]; 1.38 µM in test [2]; 1.25 µM in test [3]; 1.8 µM in test [4]; 1.28 µM in test [5]; 1.3 µM in test [6]. For the same compound, the GI50 in test [7] is 1.41 µM; in test [8] it was 1.75 µM; in test [9], 1.33 µM. Besides, the TGI in test [1] amounted to 3.23 µM; in test [2] it was 2.69 µM; in [3] it was 2.51 µM; in test [4], 3.34 µM; in test [5], 2.55 µM; in test [6], 2.61 µM. Further, the figures for the TGI in test [7], in [8] and in [9] were 2.82 µM, 3.18 µM and 2.75 µM, respectively.
On to `CC(=O)[CH-]C(=O)c1ccccc1.CC(=O)[CH-]C(=O)c1ccccc1.Cl.[O-]c1ccccn1.[O-]c1ccccn1.[Ti+4]`, for which the GI50 in [2], in test [3], in test [4], in test [5], in [6] and in test [7] was more than 100 µM throughout. The GI50 in [8] is more than 100 µM. For the same compound, the TGI in [2], in test [3], in test [4], in test [5], in test [6] and in test [7] was more than 100 µM each time. Besides, the TGI in test [8] is more than 100 µM.
For `COC1C(OC(=O)/C=C/C=C/C=C/C=C\C(=O)O)CCC2(CO2)C1C1(C)OC1CC=C(C)C` (stereo not given), the GI50 in [1], in test [2], in test [3], in test [4], in [5] and in test [6] was more than 200 µM throughout. In addition, the GI50 in [7], in test [8] and in [9] was more than 200 µM throughout. In addition, the TGI in test [1], in [2], in [3], in test [4], in test [5] and in test [6] was more than 200 µM each time. The TGI in test [7], in test [8] and in [9] was more than 200 µM in each case.
In the case of `O=[N+]([O-])c1ccc(/C=C/c2csnn2)cc1`, the TGI in [1], in test [2], in test [3], in [4], in test [6] and in test [7] was more than 100 µM each time. Further, the TGI in [8] and in [9] was more than 100 µM throughout.
Take `Cn1c2ccccc2c2c3[nH][nH]c(=O)c3c3c4ccccc4[nH]c3c21`: the GI50 in [1] is 1.85 µM; in test [2], 2.6 µM; in test [3] it was 1.32 µM; in [4], 1.77 µM; in test [5], 0.355 µM; in test [6], 2.68 µM. The GI50 in [7] is 2.33 µM; in [8], 3.74 µM; in [9] it was 3.73 µM. Also, the TGI in [1] was 8.37 µM; in test [2] it was more than 100 µM; in [3] it was 92.5 µM; in [4], 5.78 µM; in [5], 3.53 µM; in test [6] it was 24.3 µM. For the same compound, the figures for the TGI in [7], in test [8] and in test [9] were more than 100 µM, 12.9 µM and 8.98 µM, respectively.
With `C=C1C2CC(OC(C)=O)C3(C)C(c4ccoc4)OC(=O)[C@@H](O)[C@]13OC1C[C@H](OC(C)=O)C(C)(C)[C@H](CC(=O)OC)[C@]12C` (stereo not given in full), the TGI in test [1], in test [2], in test [3], in test [4], in test [5] and in test [6] was more than 100 µM in each case. In addition, the TGI in test [7], in test [8] and in [9] was more than 100 µM in each case.
In the case of `CC1=C(C(=O)Nc2ccc([N+](=O)[O-])cc2)C(c2ccc3c(c2)OCO3)C(C(=O)Nc2ccc([N+](=O)[O-])cc2)=C(C)N1`, the TGI in [1] was 57.9 µM; in test [2], more than 100 µM; in [3], more than 100 µM; in test [4], 35 µM; in test [5], 45.7 µM; in [6], more than 100 µM. In addition, the TGI was more than 100 µM in test [7], more than 100 µM in [8] and 38.9 µM in test [9].
Take `CCCCc1n(Cc2ccc3ccccc3c2)cc[n+]1Cc1ccc2ccccc2c1`: the GI50 is 0.793 µM in [1]; 1.97 µM in [2]; 0.663 µM in test [3]; 0.908 µM in test [5]; 1.45 µM in test [6]; 1.09 µM in test [7]. The GI50 in test [8] is 1.32 µM. In addition, the TGI in [1] is 2.31 µM; in test [2] it was 4.19 µM; in [3], 2.08 µM; in [5], 2.4 µM; in test [6], 2.96 µM; in test [7] it was 2.43 µM. In addition, in test [8], the TGI amounted to 2.69 µM.
`O=c1c(NO)c([N+](=O)[O-])cnn1-c1ccccc1`: the TGI in test [1] was found to be 13.2 µM; in [2], 15.9 µM; in test [3], 6.25 µM; in test [4] it was 31.4 µM; in test [5], 28.4 µM; in [6] it was 12.9 µM. The TGI was found to be 7.59 µM in test [7], 8.87 µM in [8] and 13.9 µM in [9].
In the case of `O=C(Nc1cc(Cl)cc(Cl)c1)/C(Cc1nc2ccccc2[nH]c1=O)=N/NC(=O)c1ccncc1`, the TGI in [2], in [3], in [4], in [6] and in test [9] was more than 100 µM throughout.
As for `Cc1cccc(N2C(=O)C(=O)C(c3nc4ccccc4s3)/C(=N/NC(=S)NN)C2=O)c1C` (stereo not given), the TGI in [1], in [2], in test [3], in test [4], in test [5] and in test [6] was more than 100 µM throughout. The TGI in test [7], in test [8] and in test [9] was more than 100 µM in each case.
`O=c1c(Br)cc2c(-c3ccccc3)c3cc(Br)c(O)c(Br)c3oc-2c1Br`: the TGI in test [1], in [2], in test [3], in test [6], in [7] and in test [8] was more than 100 µM throughout. In test [9], this compound came in with a TGI of more than 100 µM.
Turning to `COc1cc2c(cc1OC)NC(=O)NC(Cc1ccc3c(c1)OCO3)CC2` (stereo not given), the TGI in test [1], in test [2], in test [4], in test [5], in [6] and in test [7] was more than 100 µM throughout. Further, the TGI in test [8] and in test [9] was more than 100 µM each time.
As to `COC(=O)C1C=NNC1C(=O)OC` (stereo not given), the TGI in [1], in test [2], in [3], in test [4], in [5] and in [6] was more than 100 µM in each case. Also, the TGI in [7] is more than 100 µM.

Values taken from PubChem BioAssay (NCI).
